Experimental data: patent US8785453B2, “Arylpiperazine-containing purine derivatives and uses thereof” (Green Cross Corporation, priority 2009, dated 2014)
Where a name gives a salt, the structure may show the parent alone. Read-outs that look alike come from different tables or passages of the source. Marks after values point to notes of the source that are not given here.

What was measured:
[1] = target: T1, human serotonin transporter (Homo sapiens, UniProt P31645); test: Binding affinity for serotonin transporter ([3H]Imipramine)
T1 construct: purchased PerkinElmer; host or cells: HEK-293 cells
Method: For serotonin transporter binding assays, a reaction mixture with a final volume of 0.25 ml was prepared by mixing a test compound, human serotonin transporter membrane expressed in HEK-293 cells (PerkinElmer, 5 μg/well), [^3H] Imipramine (PerkinElmer, 2 nM) and 50 mM Tris-HCl (pH 7.4) buffer containing 120 mM NaCl and 5 mM KCl. The reaction mixture was incubated for 30 min at 27, and harvested through filtermate A glass fiber filter presoaked in 0.5% PEI with ice cold 50 mM Tris-HCl buffer (pH 7.4) containing 0.9% NaCl.

[2] = target: T2, human recombinant serotonin 5-HT2A receptor (Homo sapiens, UniProt P28223); test: Binding affinity for serotonin 5-HT2A receptor ([3H]Ketanserin)
T2 construct: purchased PerkinElmer Life and Analytical Sciences, USA; host or cells: CHO-K1 cells
Method: (§1) Receptor binding affinities of the compounds for serotonin receptors were measured by the method described in the literature (see [Park W K et al., Pharmacol Biochem Behav., 82(2), 361-372 (2005)].
For serotonin 5-HT2A binding, an aliquot of human recombinant serotonin 5-HT2A receptor (PerkinElmer Life and Analytical Sciences, USA) expressed in CHO-K1 cells (5 μg/well) and 1 nM [^3H]Ketanserin (PerkinElmer) were used in the presence of mianserin (20 μM) as a nonspecific. The reaction mixture was incubated for 60 min […] 50 mM Tris-HCl (pH 7.4) buffer containing 4 mM CaCl2 and 0.1% ascorbic acid, and harvested through filtermate A glass fiber filter (Wallac, Finland) presoaked in 0.5% polyethyleneimine (PEI) by microbeta filtermate-96 harvester (PerkinElmer) to terminate the reaction, and then washed with ice cold 50 mM Tris-HCl buffer solution (pH 7.4). The filter was then covered with MeltiLex, sealed in a sample bag, dried in an oven. The radioactivity retained in the filter was finally counted using MicroBeta Plus (Wallac).
(§2) The binding affinity (IC50) of a compound for the receptor was calculated by computerized nonlinear regression analysis (GraphPad Prism Program, San Diego, USA) using 7-8 varied concentrations of the compound run in duplicate tubes.

mice = test: Anti-depressants activity in forced swimming test; format: in vivo; conditions: 60 min before testing
Method: Each mouse was placed in a 25 cm glass cylinder (10 cm diameter) containing 15 cm of water maintained at 22±1, and was forced to swim for 10 min. 24 hours later, the mouse was replaced into the cylinder and the total duration of immobility was recorded during the last 5 min of the 6-min testing period. Mice are judged immobile when they float in an upright position and make only small movements to keep their head above water. Test drugs were suspended in 3% Tween 80 solution, and administered orally (po) 60 min before the testing.

[3] = target: T3, human recombinant 5-HT2C receptor (Homo sapiens, UniProt P28335); test: Binding affinity for serotonin 5-HT2C receptor ([3H]Mesulergine)
T3 construct: purchased PerkinElmer
T3 sequence (P28335 33-458): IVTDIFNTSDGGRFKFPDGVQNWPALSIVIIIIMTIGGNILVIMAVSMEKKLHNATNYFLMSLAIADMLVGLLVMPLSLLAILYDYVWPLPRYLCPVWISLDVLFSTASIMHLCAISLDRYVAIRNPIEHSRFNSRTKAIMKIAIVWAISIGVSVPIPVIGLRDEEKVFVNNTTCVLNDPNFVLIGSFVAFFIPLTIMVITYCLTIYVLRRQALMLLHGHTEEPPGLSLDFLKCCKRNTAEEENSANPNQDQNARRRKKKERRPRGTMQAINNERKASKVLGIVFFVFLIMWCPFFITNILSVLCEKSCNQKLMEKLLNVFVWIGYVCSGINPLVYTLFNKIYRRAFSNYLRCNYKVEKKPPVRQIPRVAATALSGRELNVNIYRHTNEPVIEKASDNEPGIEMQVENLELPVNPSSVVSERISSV
Method: as §1, §2
For serotonin 5-HT2C binding, frozen membranes from stable CHO-K1 cell line expressing the human recombinant 5-HT2C receptor (PerkinElmer, 4 μg/well), [^3H]Mesulergine (Amersham, 1.3 nM) and test compounds were added into 50 mM Tris-HCl (pH 7.4) buffer containing 0.1% ascorbic acid and 4 mM CaCl2. Nonspecific binding was determined using 100 μM mianserin. The incubations were performed for 60 min at 27, and these were terminated by rapid filtration through filtermate A glass fiber filter presoaked in 0.5% PEI.

[4] = HEK-293 membrane, 2 nM [3H]Imipramine, read-out: binding affinity Serotonin Transporter
[5] = CHO-K1 cells, 1 nM [3H]Ketanserin, read-out: binding affinity (IC50) 5-HT2A
[6] = CHO-K1 membranes, 1.3 nM [3H]Mesulergine, read-out: binding affinity (IC50) 5-HT2C

T2 sequence (P28223 whole entry): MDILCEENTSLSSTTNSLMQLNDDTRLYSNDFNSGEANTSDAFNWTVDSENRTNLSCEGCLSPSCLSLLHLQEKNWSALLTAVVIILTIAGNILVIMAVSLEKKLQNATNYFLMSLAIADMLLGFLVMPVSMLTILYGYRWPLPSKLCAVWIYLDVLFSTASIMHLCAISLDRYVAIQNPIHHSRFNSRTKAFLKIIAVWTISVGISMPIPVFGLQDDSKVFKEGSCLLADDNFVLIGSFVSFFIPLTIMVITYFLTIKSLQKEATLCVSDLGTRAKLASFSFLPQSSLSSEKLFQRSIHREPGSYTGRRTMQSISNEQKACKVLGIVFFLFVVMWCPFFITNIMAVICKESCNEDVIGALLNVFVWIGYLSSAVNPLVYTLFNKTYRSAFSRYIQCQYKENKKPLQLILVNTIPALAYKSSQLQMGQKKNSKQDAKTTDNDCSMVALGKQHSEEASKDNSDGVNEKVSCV
T1 sequence (P31645 whole entry): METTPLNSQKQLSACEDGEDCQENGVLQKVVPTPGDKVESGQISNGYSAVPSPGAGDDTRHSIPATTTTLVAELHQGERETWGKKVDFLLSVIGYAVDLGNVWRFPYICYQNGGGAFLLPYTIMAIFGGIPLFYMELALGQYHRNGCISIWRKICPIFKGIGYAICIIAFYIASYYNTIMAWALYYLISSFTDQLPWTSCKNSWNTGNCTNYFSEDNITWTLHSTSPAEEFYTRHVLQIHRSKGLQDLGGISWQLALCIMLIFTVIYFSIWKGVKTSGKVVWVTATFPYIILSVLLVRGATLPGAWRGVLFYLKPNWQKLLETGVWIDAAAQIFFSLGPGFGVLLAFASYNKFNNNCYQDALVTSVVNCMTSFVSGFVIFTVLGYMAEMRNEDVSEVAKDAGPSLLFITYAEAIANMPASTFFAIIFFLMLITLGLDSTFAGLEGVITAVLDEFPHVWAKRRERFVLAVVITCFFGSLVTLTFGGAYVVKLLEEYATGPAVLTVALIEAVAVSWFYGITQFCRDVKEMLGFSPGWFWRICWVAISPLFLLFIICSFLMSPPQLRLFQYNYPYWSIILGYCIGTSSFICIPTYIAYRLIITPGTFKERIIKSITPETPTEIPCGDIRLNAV

| SMILES | IC50 [1] | IC50 [2] | Immobility in forced swimming test (mice; 50 mg/kg po) | IC50 [3] | IC50 [1, 4] | IC50 [2, 5] | Immobility in forced swimming test (mice; 25 mg/kg po) | IC50 [3, 6] | Immobility in forced swimming test (mice; 100 mg/kg po) |
| --- | --- | --- | --- | --- | --- | --- | --- | --- | --- |
| Clc1cccc(N2CCN(CCCNc3ncnc4c3nc(-c3ccccc3)n4-c3ccccc3)CC2)c1Cl [Example 1, N-(3-(4-(2,3-dichlorophenyl)piperazin-1-yl)propyl)-8,9-diphenyl-9H-purine-6-amine] | 64 nM | 14 nM | 41.79% | 86 nM | – | – | – | – | – |
| Cc1cccc(N2CCN(CCCNc3ncnc4c3nc(-c3ccccc3)n4-c3ccccc3)CC2)c1C [Example 2, N-(3-(4-(2,3-dimethylphenyl)piperazin-1-yl)propyl)-8,9-diphenyl-9H-purine-6-amine] | – | – | 47.13 ± 10.41% | – | 75 nM | 32 nM | 58.34 ± 11.05% | 163 nM | – |
| CCc1nc2c(NCCN3CCN(c4cccc(C)c4C)CC3)ncnc2n1-c1ccccc1 [Example 10, N-(2-(4-(2,3-dimethylphenyl)piperazin-1-yl)ethyl)-8-ethyl-9-phenyl-9H-purine-6-amine] | – | – | 80.58 ± 11.21% | – | 161 nM | 11 nM | 74.56 ± 14.08% | 106 nM | – |
| CCCc1nc2c(NCCN3CCN(c4cccc(C)c4C)CC3)ncnc2n1-c1ccccc1 [Example 12, N-(2-(4-(2,3-dimethylphenyl)piperazin-1-yl)ethyl)-9-phenyl-8-propyl-9H-purine-6-amine] | – | – | – | – | 93 nM | 13 nM | 94.69 ± 12.46% | 147 nM | – |
| Cc1cccc(N2CCN(CCCNc3ncnc4c3ncn4-c3ccccc3)CC2)c1C [Example 13, N-(3-(4-(2,3-dimethylphenyl)piperazin-1-yl)propyl)-9-phenyl-9H-purine-6-amine] | – | – | – | – | 35 nM | 56 nM | 89.81 ± 7.14% | 294 nM | – |
| Cc1cccc(N2CCN(CCNc3ncnc4c3nc(-c3ccccc3)n4-c3ccccc3)CC2)c1C [Example 18, N-(2-(4-(2,3-dimethylphenyl)piperazin-1-yl)ethyl)-8,9-diphenyl-9H-purine-6-amine] | – | – | – | – | 575 nM | 28 nM | 89.98 ± 11.45% | 216 nM | – |
| Cc1cccc(N2CCN(CCCNc3ncnc4c3nc(-c3ccccc3)n4C)CC2)c1C [Example 23, N-(3-(4-(2,3-dimethylphenyl)piperazin-1-yl)propyl)-9-methyl-8-phenyl-9H-purine-6-amine] | – | – | – | – | 106 nM | 36 nM | 99.59 ± 6.34% | 76 nM | – |
| Cc1cccc(N2CCN(CCCNc3ncnc4c3nc(C)n4C)CC2)c1C [Example 28, N-(3-(4-(2,3-dimethylphenyl)piperazin-1-yl)propyl)-8,9-dimethyl-9H-purine-6-amine] | – | – | – | – | 85 nM | 65 nM | 87.65 ± 7.08% | 430 nM | – |
| Cc1cccc(N2CCN(CCCNc3ncnc4c3ncn4-c3ccc4c(c3)OCO4)CC2)c1C [Example 34, 9-(benzo[d][1,3]dioxol-5-yl)-N-(3-(4-(2,3-dimethylphenyl)piperazin-1-yl)propyl)-9H-purine-6-amine] | – | – | 96.83 ± 11.02% | – | 6 nM | 54 nM | 76.92 ± 10.04% | 230 nM | – |
| Cc1cccc(N2CCN(CC(O)CNc3ncnc4c3nc(C)n4-c3ccc4c(c3)OCO4)CC2)c1C (centres unmarked) [Example 35, 1-(9-(benzo[d][1,3]dioxol-5-yl)-8-methyl-9H-purin-6-ylamino)-3-(4-(2,3-dimethylphenyl)piperazin-1-yl)propan-2-ol] | – | – | – | – | 27 nM | 106 nM | 87.36 ± 6.89% | 789 nM | – |
| Cc1cccc(N2CCN(CCCNc3ncnc4c3nc(C)n4-c3ccc4c(c3)OCO4)CC2)c1C [Example 36, 9-(benzo[d][1,3]dioxol-5-yl)-N-(3-(4-(2,3-dimethylphenyl)piperazin-1-yl)propyl)-8-methyl-9H-purine-6-amine] | – | – | 86.77 ± 11.28% | – | 4 nM | 29 nM | 79.93 ± 13.23% | 285 nM | – |
| Cc1cccc(N2CCN(CC(O)CNc3ncnc4c3nc(C(C)(C)C)n4C)CC2)c1C (centres unmarked) [Example 38, 1-(8-tert-butyl-9-methyl-9H-purin-6-ylamino)-3-(4-(2,3-dimethylphenyl)piperazin-1-yl)propan-2-ol] | – | – | 64.14 ± 10.74% | – | 19 nM | 404 nM | 74.86 ± 9.75% | 1590 nM | – |
| CCc1nc2c(NCCCN3CCN(c4cccc(C)c4C)CC3)ncnc2n1-c1ccc2c(c1)OCO2 [Example 39, 9-(benzo[d][1,3]dioxol-5-yl)-N-(3-(4-(2,3-dimethylphenyl)piperazin-1-yl)propyl)-8-ethyl-9H-purine-6-amine] | – | – | – | – | 21 nM | 33 nM | 88.94 ± 5.41% | 328 nM | – |
| CCc1nc2c(NCC(O)CN3CCN(c4cccc(C)c4C)CC3)ncnc2n1-c1ccc2c(c1)OCO2 (centres unmarked) [Example 40, 1-(9-(benzo[d][1,3]dioxol-5-yl)-8-ethyl-9H-purin-6-ylamino)-3-(4-(2,3-dimethylphenyl)piperazin-1-yl)propan-2-ol] | – | – | – | – | 18 nM | 125 nM | 98.20 ± 10.00% | 713 nM | – |
| Cc1cccc(N2CCN(CCCNc3ncnc4c3ncn4-c3ccc4c(c3)OCCO4)CC2)c1C [Example 41, 9-(2,3-dihydrobenzo[b][1,4]dioxin-6-yl)-N-(3-(4-(2,3-dimethylphenyl)piperazin-1-yl)propyl)-9H-purine-6-amine] | – | – | – | – | 7 nM | 16 nM | 105.95 ± 4.92% | 224 nM | – |
| Cc1cccc(N2CCN(CC(O)CNc3ncnc4c3ncn4-c3ccc4c(c3)OCCO4)CC2)c1C (centres unmarked) [Example 42, 1-(9-(2,3-dihydrobenzo[b][1,4]dioxin-6-yl)-9H-purin-6-ylamino)-3-(4-(2,3-dimethylphenyl)piperazin-1-yl)propan-2-ol] | – | – | – | – | 8 nM | 40 nM | 86.65 ± 6.40% | 560 nM | – |
| Cc1c(Cl)cccc1N1CCN(CCCNc2ncnc3c2nc(-c2ccccc2)n3-c2ccccc2)CC1 [Example 67, N-(3-(4-(3-chloro-2-methylphenyl)piperazin-1-yl)propyl)-8,9-diphenyl-9H-purine-6-amine] | – | – | – | – | 96 nM | 42 nM | – | 247 nM | – |
| Cc1cccc(N2CCN(CCCNc3ncnc4c3nc(-c3ccccc3)n4-c3ccc(F)cc3)CC2)c1C [Example 79, N-(3-(4-(2,3-dimethylphenyl)piperazin-1-yl)propyl)-9-(4-fluorophenyl)-8-phenyl-9H-purine-6-amine] | – | – | – | – | 67 nM | 43 nM | – | 303 nM | – |
| CSc1ccc(-n2c(C)nc3c(NCCN4CCN(c5cccc(C)c5C)CC4)ncnc32)cc1 [Example 85, N-(2-(4-(2,3-dimethylphenyl)piperazin-1-yl)ethyl)-8-methyl-9-(4-(methylthio)phenyl)-9H-purine-6-amine hydrochloride] | – | – | – | – | 362 nM | 9.6 nM | – | 70 nM | – |
| CNCCC(Oc1ccc(C(F)(F)F)cc1)c1ccccc1 (centres unmarked) [Fluoxetine, reference compound] | – | – | 70.4^b % | – | – | – | – | – | 59.5^b % |
